Common to all, as to format: biochemical
For experiment [1], the target named is T1, Recombinant human FAP (Homo sapiens, UniProt Q12884).
T1 construct: purchased R&D systems
T1 sequence (Q12884 1-760): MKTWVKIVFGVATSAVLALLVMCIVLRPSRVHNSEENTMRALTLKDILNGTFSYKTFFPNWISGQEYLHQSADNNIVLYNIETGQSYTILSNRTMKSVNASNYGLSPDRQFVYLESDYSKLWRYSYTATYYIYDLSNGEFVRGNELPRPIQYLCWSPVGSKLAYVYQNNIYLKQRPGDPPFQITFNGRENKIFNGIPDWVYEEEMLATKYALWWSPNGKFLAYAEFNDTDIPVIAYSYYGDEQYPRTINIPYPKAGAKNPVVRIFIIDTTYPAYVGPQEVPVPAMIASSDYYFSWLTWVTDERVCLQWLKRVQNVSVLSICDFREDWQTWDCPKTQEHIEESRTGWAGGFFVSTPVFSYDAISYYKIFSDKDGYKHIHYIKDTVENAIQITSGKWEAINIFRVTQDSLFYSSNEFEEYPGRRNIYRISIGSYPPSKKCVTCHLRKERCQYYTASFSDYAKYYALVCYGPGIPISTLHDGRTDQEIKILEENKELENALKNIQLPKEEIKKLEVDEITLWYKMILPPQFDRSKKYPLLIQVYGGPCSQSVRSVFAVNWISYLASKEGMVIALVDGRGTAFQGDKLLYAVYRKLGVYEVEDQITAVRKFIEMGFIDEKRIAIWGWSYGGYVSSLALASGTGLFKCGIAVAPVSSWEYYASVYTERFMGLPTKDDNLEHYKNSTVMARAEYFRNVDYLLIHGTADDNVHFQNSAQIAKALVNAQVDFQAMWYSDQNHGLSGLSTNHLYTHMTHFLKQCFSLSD
The experiment is described as follows: FAP inhibition, fluorogenic substrate Z-Gly-Pro-AMC. The gist of the method: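 Eight-point compound dilutions (≤0.1% DMSO) were incubated at 25° C with 10 ng recombinant human FAP in Tris pH 7.5/1 M NaCl/BSA buffer and Z-Gly-Pro-AMC. Inhibition was taken as % drop in fluorescence rate (380/460 nm) against uninhibited control; IC50 came from a four-parameter logistic fit.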

Experiment [2] deals with T2, recombinant human PREP (Homo sapiens, UniProt P48147).
T2 construct: purchased R&D System
T2 sequence (P48147 1-710): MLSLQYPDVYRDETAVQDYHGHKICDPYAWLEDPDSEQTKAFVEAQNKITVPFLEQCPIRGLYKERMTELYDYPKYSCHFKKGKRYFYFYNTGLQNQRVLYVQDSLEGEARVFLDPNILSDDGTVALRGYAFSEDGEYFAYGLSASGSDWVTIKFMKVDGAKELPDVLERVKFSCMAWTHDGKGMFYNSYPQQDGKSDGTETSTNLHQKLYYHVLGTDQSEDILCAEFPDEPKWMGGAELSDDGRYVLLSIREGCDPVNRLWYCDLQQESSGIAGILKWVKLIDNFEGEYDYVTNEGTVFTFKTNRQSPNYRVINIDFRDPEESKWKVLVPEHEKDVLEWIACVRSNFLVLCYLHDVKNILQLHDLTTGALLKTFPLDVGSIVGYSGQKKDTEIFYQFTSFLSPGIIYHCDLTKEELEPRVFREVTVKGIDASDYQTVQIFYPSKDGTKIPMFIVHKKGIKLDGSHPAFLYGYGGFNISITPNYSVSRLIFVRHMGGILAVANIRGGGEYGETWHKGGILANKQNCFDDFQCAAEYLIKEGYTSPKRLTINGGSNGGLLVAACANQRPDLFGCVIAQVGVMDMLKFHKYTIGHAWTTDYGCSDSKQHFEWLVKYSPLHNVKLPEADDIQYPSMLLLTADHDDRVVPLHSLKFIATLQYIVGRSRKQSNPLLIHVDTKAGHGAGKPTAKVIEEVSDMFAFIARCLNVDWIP
In words: PREP inhibition, fluorogenic substrate Z-Gly-Pro-AMC. The settings on record: Inhibitory Activity (IC50, nM) PREP. The gist of the method: (§1)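 Inhibitors are titrated in an 8-point series into the enzyme's assay buffer (DMSO no more than 0.5%). Substrate cleavage at 25 °C is followed by fluorescence, excitation 380 nm and emission 460 nm. IC50 values come from a four-variable logistic model.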

Experiment [3] addresses T3, recombinant human DPP9 (Homo sapiens, UniProt Q86TI2).
T3 construct: purchased R&D Systems
The experiment is described as follows: DPP9 inhibition, fluorogenic substrate H-Gly-Pro-AMC. A digest of the protocol:
as §1

For experiment [4], the target named is DPP4 (Homo sapiens, UniProt P27487). In words: DPP4 inhibition, fluorogenic substrate H-Gly-Pro-AMC. Set-up: purchased R&D Systems.
DPP4, sequence (P27487 whole entry): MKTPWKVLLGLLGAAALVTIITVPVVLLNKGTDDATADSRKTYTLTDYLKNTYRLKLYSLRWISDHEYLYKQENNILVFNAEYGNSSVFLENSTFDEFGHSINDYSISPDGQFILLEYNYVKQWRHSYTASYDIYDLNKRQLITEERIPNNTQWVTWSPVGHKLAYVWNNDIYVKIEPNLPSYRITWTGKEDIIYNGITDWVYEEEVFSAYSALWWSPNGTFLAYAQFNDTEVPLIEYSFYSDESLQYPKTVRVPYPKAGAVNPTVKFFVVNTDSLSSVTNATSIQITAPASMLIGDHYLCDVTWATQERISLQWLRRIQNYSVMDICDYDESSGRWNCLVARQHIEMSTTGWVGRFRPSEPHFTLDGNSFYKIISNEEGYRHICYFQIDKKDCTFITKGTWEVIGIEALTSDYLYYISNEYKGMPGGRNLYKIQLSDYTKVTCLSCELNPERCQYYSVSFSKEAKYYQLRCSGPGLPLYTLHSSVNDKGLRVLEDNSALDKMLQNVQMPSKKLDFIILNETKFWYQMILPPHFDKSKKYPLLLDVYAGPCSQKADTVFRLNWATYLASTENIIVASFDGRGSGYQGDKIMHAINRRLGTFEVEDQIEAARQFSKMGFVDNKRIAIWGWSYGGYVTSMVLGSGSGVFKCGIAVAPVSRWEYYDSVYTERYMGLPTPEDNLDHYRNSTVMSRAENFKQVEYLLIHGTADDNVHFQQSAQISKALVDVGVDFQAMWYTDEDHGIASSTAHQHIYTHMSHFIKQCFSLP
Experiment [5] deals with T4, recombinant human DPP8 (Homo sapiens, UniProt Q6V1X1).
T4 construct: purchased PBS Bioscience
T4 sequence (Q6V1X1 whole entry): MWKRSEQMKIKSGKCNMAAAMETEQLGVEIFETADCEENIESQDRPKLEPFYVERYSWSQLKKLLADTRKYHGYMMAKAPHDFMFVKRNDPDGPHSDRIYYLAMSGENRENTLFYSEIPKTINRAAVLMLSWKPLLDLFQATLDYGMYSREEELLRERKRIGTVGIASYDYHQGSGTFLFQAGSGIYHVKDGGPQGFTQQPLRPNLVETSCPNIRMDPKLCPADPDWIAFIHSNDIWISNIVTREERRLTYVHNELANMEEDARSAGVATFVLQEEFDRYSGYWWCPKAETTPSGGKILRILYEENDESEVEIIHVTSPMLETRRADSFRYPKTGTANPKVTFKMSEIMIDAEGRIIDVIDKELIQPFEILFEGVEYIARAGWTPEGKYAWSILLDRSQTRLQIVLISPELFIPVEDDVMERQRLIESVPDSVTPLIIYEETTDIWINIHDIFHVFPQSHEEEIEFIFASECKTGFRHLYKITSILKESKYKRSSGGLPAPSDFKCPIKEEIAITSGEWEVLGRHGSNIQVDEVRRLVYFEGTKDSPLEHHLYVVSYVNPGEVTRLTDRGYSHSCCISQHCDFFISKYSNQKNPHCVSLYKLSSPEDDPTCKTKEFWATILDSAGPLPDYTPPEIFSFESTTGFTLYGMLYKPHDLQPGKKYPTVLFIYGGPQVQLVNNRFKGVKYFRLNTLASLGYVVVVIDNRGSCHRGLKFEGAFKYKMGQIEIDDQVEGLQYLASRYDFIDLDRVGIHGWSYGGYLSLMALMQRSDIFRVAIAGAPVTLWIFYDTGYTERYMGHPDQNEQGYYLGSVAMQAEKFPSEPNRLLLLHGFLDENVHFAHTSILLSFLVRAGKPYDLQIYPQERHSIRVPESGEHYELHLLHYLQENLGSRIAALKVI
The experiment is described as follows: DPP8 inhibition, fluorogenic substrate Z-Ala-Pro-AMC. The gist of the method:
as §1

For experiment [6], the target named is T5, recombinant human DPP7 (Homo sapiens, UniProt Q9UHL4).
T5 construct: purchased R&D Systems
The experiment is described as follows: DPP7 inhibition, fluorogenic substrate Lys-Pro-AMC. The gist of the method:
as §1

The mark [7] stands for this setting: recombinant human FAP, substrate Z-Gly-Pro-AMC.
Where [8] appears, read: 25° C., Z-Gly-Pro-AMC substrate.
Where [9] appears, read: 25° C., H-Gly-Pro-AMC substrate.
Setting [10] is: 25° C., Z-Ala-Pro-AMC substrate.

Where two headings read alike, the source gives them in different places.

T3 sequence (Q86TI2 whole entry): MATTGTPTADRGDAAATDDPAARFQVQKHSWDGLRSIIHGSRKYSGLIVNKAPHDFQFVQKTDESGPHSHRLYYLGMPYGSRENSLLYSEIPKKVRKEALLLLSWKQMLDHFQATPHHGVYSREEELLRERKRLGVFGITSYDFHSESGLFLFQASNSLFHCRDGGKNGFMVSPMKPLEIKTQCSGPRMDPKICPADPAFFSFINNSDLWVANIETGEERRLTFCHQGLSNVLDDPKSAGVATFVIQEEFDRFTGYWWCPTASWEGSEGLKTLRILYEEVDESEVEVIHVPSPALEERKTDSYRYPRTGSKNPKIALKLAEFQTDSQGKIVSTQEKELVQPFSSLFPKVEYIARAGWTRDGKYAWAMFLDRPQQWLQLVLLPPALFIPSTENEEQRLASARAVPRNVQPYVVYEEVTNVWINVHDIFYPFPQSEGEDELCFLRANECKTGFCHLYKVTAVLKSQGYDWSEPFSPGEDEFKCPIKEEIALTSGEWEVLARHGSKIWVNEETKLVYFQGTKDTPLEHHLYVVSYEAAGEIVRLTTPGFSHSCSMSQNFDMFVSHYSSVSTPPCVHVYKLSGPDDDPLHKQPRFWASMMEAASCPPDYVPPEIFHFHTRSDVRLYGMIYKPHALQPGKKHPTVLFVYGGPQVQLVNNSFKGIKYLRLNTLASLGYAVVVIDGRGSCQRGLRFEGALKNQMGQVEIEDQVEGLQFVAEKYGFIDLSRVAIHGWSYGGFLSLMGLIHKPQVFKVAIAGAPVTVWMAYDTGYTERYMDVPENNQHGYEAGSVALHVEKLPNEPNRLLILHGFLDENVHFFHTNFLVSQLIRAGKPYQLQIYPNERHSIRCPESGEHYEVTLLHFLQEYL

Turning to `CN(c1cc2ccccc2cn1)C1CCN(CC(=O)N2C[C@@H](F)C[C@H]2C#N)CC1` [Example 317, (2S,4S)-4-fluoro-1-[2-[4-[3-isoquinolyl(methyl)amino]-1-piperidyl]acetyl]pyrrolidine-2-carbonitrile], the half-maximal inhibitory concentration (IC50) (in general, the point on the concentration scale where inhibition reaches its midpoint) in experiment [1] (setting [7]) is 2.7 nM; in experiment [2] (recombinant human PREP), 299 nM; in experiment [3] (recombinant human DPP9) it was 7070 nM; in experiment [4] (recombinant human DPP4), more than 10000 nM; in experiment [5] (recombinant human DPP8), more than 100000 nM; in experiment [6] (recombinant human DPP7), 1850 nM.

Consider `N#C[C@@H]1C[C@H](F)CN1C(=O)CN1CC[C@H](Nc2ccc3ncccc3c2)C1` [Example 250, (2S,4S)-4-fluoro-1-[2-[(3S)-3-(6-quinolylamino)pyrrolidin-1-yl]acetyl]pyrrolidine-2-carbonitrile], for which the IC50 in experiment [1] (setting [7]) turned out to be 3.4 nM; in experiment [2] (recombinant human PREP) it was 2160 nM; in experiment [3] (recombinant human DPP9) it was 3690 nM; in experiment [4] (recombinant human DPP4) it was 964 nM; in experiment [5] (recombinant human DPP8), 2280 nM; in experiment [6] (recombinant human DPP7), 654 nM.

Take `N#C[C@@H]1CC(F)(F)CN1C(=O)CN1CC[C@H](Oc2cccc3cnccc23)C1` [Example 106, (S)-4,4-difluoro-1-(2-((S)-3-(isoquinolin-5-yloxy)pyrrolidin-1-yl)acetyl)pyrrolidine-2-carbonitrile]: the half-maximal inhibitory concentration (IC50) in experiment [1] (setting [8]) is 1.88 nM; in experiment [2] (setting [8]), 4310 nM; in experiment [3] (setting [9]) it was 10300 nM; in experiment [4] (setting [9]), more than 1000 nM; in experiment [5] (setting [10]) it was 8280 nM; in experiment [6] it was 41.6 nM.

Consider `CN(c1ccc2cnccc2c1)C1CCN(CC(=O)N2CCC[C@H]2C#N)CC1` [Example 314, (2S)-1-(2-(4-(isoquinolin-6-yl(methyl)amino)piperidin-1-yl)acetyl)pyrrolidine-2-carbonitrile], for which the IC50 in experiment [1] (setting [7]) was 8.7 nM; in experiment [2] (recombinant human PREP), 531 nM; in experiment [3] (recombinant human DPP9), 34900 nM; in experiment [4] (recombinant human DPP4), more than 10000 nM; in experiment [5] (recombinant human DPP8), more than 100000 nM; in experiment [6] (recombinant human DPP7), 2470 nM.

Consider `N#C[C@@H]1CC(F)(F)CN1C(=O)CN1CC[C@H](Nc2cccc3ccsc23)C1` [Example 10, (S)-1-(2-((S)-3-(benzo[b]thiophen-7-ylamino)pyrrolidin-1-yl)acetyl)-4,4-difluoropyrrolidine-2-carbonitrile], for which the IC50 in experiment [1] (setting [8]) was 3.2 nM; in experiment [2] (setting [8]), more than 100000 nM; in experiment [3] (setting [9]), 9980 nM; in experiment [4] (setting [9]), more than 1000 nM; in experiment [5] (setting [10]), 143 nM; in experiment [6] it was 75 nM.

Take `N#C[C@@H]1C[C@H](F)CN1C(=O)CN1CCC(Nc2ccnc3ccc(F)cc23)CC1` [Example 337, (2S,4S)-4-fluoro-1-[2-[4-[(6-fluoro-4-quinolyl)amino]-1-piperidyl]acetyl]pyrrolidine-2-carbonitrile]: the IC50 in experiment [1] (setting [7]) is 7.8 nM; in experiment [2] (recombinant human PREP), 2540 nM; in experiment [3] (recombinant human DPP9) it was 2290 nM; in experiment [4] (recombinant human DPP4), 8180 nM; in experiment [5] (recombinant human DPP8) it was 7880 nM; in experiment [6] (recombinant human DPP7), 571 nM.

As for `N#C[C@@H]1CC(F)(F)CN1C(=O)CN1CC[C@H](Nc2cncc3ccccc23)C1` [Example 8, (S)-4,4-difluoro-1-(2-((S)-3-(isoquinolin-4-ylamino)pyrrolidin-1-yl)acetyl)pyrrolidine-2-carbonitrile], the half-maximal inhibitory concentration (IC50) in experiment [1] (setting [8]) is 1.1 nM; in experiment [2] (setting [8]), more than 100000 nM; in experiment [3] (setting [9]), 488 nM; in experiment [4] (setting [9]) it was more than 1000 nM; in experiment [5] (setting [10]), 5790 nM; in experiment [6] it was less than 30 nM.

For `N#C[C@@H]1CCCN1C(=O)CN1CC[C@H](Nc2cc(F)cc3ncccc23)C1` [Example 236, (2S)-1-[2-[(3S)-3-[(7-fluoro-5-quinolyl)amino]pyrrolidin-1-yl]acetyl]pyrrolidine-2-carbonitrile], the IC50 in experiment [1] (setting [7]) was 1.5 nM; in experiment [2] (recombinant human PREP) it was 8900 nM; in experiment [3] (recombinant human DPP9), 18800 nM; in experiment [4] (recombinant human DPP4), more than 10000 nM; in experiment [5] (recombinant human DPP8), more than 100000 nM; in experiment [6] (recombinant human DPP7) it was 3470 nM.

Turning to `Cc1ccc2ncccc2c1N[C@H]1CCN(CC(=O)N2CCC[C@H]2C#N)C1` [Example 239, (2S)-1-[2-[(3S)-3-[(6-methyl-5-quinolyl)amino]pyrrolidin-1-yl]acetyl]pyrrolidine-2-carbonitrile], the half-maximal inhibitory concentration (IC50) is 6 nM in experiment [1] (setting [7]); 9980 nM in experiment [2] (recombinant human PREP); 43900 nM in experiment [3] (recombinant human DPP9); more than 10000 nM in experiment [4] (recombinant human DPP4); 74300 nM in experiment [5] (recombinant human DPP8); 7280 nM in experiment [6] (recombinant human DPP7).

In the case of `N#C[C@@H]1C[C@H](F)CN1C(=O)CN1CCC(Nc2ccnc3ccc(Cl)cc23)CC1` [Example 338, (2S,4S)-1-[2-[4-[(6-chloro-4-quinolyl)amino]-1-piperidyl]acetyl]-4-fluoro-pyrrolidine-2-carbonitrile], the IC50 in experiment [1] (setting [7]) came to 6.5 nM; in experiment [2] (recombinant human PREP), 1450 nM; in experiment [3] (recombinant human DPP9), 2940 nM; in experiment [4] (recombinant human DPP4), 6890 nM; in experiment [5] (recombinant human DPP8), 8330 nM; in experiment [6] (recombinant human DPP7) it was 809 nM.

Take `N#C[C@@H]1C[C@H](F)CN1C(=O)CN1CCC(Nc2ccc(Cl)c3cnccc23)CC1` [Example 353, (2S,4S)-1-[2-[4-[(8-chloro-5-isoquinolyl)amino]-1-piperidyl]acetyl]-4-fluoro-pyrrolidine-2-carbonitrile]: the IC50 is 4.5 nM in experiment [1] (setting [7]); 3570 nM in experiment [2] (recombinant human PREP); 2880 nM in experiment [3] (recombinant human DPP9); 5890 nM in experiment [4] (recombinant human DPP4); more than 10000 nM in experiment [5] (recombinant human DPP8); 1060 nM in experiment [6] (recombinant human DPP7).

For the compound `N#Cc1cnc2cccc(N[C@H]3CCN(CC(=O)N4C[C@@H](F)C[C@H]4C#N)C3)c2c1` [Example 253, 5-[[(3S)-1-[2-oxo-2-[(2S,4S)-2-cyano-4-fluoro-pyrrolidin-1-yl]ethyl]pyrrolidin-3-yl]amino]quinoline-3-carbonitrile], the 50% inhibitory concentration (IC50) came out at 0.9 nM in experiment [1] (setting [7]); 2220 nM in experiment [2] (recombinant human PREP); 5360 nM in experiment [3] (recombinant human DPP9); 2310 nM in experiment [4] (recombinant human DPP4); 2670 nM in experiment [5] (recombinant human DPP8); 2190 nM in experiment [6] (recombinant human DPP7).

Turning to `N#C[C@@H]1CC(F)(F)CN1C(=O)CN1CC[C@H](Nc2ccc3ccccc3c2)C1` [Example 15, (S)-4,4-difluoro-1-(2-((S)-3-(naphthalen-2-ylamino)pyrrolidin-1-yl)acetyl)pyrrolidine-2-carbonitrile], the IC50 is 12.3 nM in experiment [1] (setting [8]); more than 100000 nM in experiment [2] (setting [8]); 48800 nM in experiment [3] (setting [9]); 253 nM in experiment [5] (setting [10]); 196 nM in experiment [6]. Moreover, the inhibition (usually how much of the control response was suppressed) at 1 µM in experiment [4] (read-out: hDPP4 inhibition % at 1 μM) stood at 9.7%.

For the compound `COc1cc2nc(Cl)nc(NC3CCN(CC(=O)N4CCC[C@H]4C#N)CC3)c2cc1OC` [Example 358, (2S)-1-[2-[4-[(2-chloro-6,7-dimethoxy-quinazolin-4-yl)amino]-1-piperidyl]acetyl]pyrrolidine-2-carbonitrile], the 50% inhibitory concentration (IC50) in experiment [1] (setting [7]) was 3.7 nM; in experiment [2] (recombinant human PREP) it was 11800 nM; in experiment [3] (recombinant human DPP9) it was 64600 nM; in experiment [4] (recombinant human DPP4), more than 10000 nM; in experiment [5] (recombinant human DPP8), 30000 nM; in experiment [6] (recombinant human DPP7), 1440 nM.

Source of the values: patent US11655235B2, “Pyrrolidine and piperidine compounds” (YUHAN CORPORATION, priority 2019, dated 2023).
